Data as given in patent US20100075957A1, “AMINODIHYDROTHIAZINE DERIVATIVES SUBSTITUTED WITH A CYCLIC GROUP” (SHIONOGI & CO., LTD., priority 2007, published 2010).
pIC50: −log10 of the molar value.

target: T1, Recombinant human BACE-1 (Homo sapiens, UniProt P56817); experiment: Assay of β-secretase-inhibiting activity; assay type: biochemical; settings: Recombinant human BACE-1 7.4 nM, substrate peptide 18 nM, pH 5.0, 30° C., 3 hours; Table 139; read-out: IC50;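 note: substrate is a peptide carrying biotin and europium cryptate, after the enzyme reaction, Streptavidin-XL665 is added and incubated 1 h at 30 °C before fluorescence reading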
T1 construct: purchased R&D Systems
T1 sequence (P56817 46-501): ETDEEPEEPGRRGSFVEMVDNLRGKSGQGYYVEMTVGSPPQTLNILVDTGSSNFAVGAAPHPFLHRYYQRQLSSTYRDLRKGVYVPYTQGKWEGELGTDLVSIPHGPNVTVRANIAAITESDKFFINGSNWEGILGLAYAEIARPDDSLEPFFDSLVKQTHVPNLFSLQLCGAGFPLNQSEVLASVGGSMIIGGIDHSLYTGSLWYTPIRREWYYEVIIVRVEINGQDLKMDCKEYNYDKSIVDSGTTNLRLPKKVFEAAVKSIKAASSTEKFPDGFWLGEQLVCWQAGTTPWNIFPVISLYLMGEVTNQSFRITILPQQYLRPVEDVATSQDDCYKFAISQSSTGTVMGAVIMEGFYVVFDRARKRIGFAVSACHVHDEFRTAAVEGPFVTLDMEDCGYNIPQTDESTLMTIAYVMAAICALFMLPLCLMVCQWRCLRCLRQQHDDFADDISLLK

SMILES | pIC50
Cc1cc(C(=O)Nc2cccc([C@]3(C)CCSC(N)=N3)c2)c(C)o1 [Compound 3] | 7.10
Cc1cc(C(=O)Nc2cccc([C@]3(C)CCSC(N)=N3)c2)c(C)s1 [Compound 11] | 6.77
Cc1nc(C)c(C(=O)Nc2ccc(F)c([C@]3(C)CCSC(N)=N3)c2)s1 [Compound 12] | 6.80
C/C=C/COc1ccc(C(=O)Nc2cccc([C@]3(C)CCSC(N)=N3)c2)nc1 [Compound 34] | 7.00
CSc1ccc(C(=O)Nc2ccc(F)c([C@]3(C)CCSC(N)=N3)c2)s1 [Compound 38] | 6.85
C[C@@]1(c2cc(NC(=O)c3ccc(Br)s3)ccc2F)CCSC(N)=N1 [Compound 41] | 6.82
COCCOc1cnc(C(=O)Nc2cccc(C3(C)CCSC(N)=N3)c2)cn1 (stereo not shown) [Compound 62] | 6.77
CC#CC(=O)Nc1cccc([C@]2(C)CCSC(N)=N2)c1 [Compound 65] | 6.14
C=Cc1cnc(C(=O)Nc2cccc([C@]3(C)CCSC(N)=N3)c2)cn1 [Compound 66] | 6.82
COCCOc1cnc(C(=O)Nc2cccc([C@]3(C)CCSC(N)=N3)c2)cn1 [Compound 70] | 7.05
CCCCOc1cnc(C(=O)Nc2cccc(C3(C)CCSC(N)=N3)c2)cn1 (stereo not shown) [Compound 71] | 6.80
CCCOc1cnc(C(=O)Nc2cccc([C@]3(C)CCSC(N)=N3)c2)cn1 [Compound 72] | 6.96
CSCCOc1cnc(C(=O)Nc2cccc([C@]3(C)CCSC(N)=N3)c2)cn1 [Compound 76] | 6.74
CCSc1cnc(C(=O)Nc2cccc([C@]3(C)CCSC(N)=N3)c2)cn1 [Compound 80] | 7.15
C=CCCOc1cnc(C(=O)Nc2cccc([C@]3(C)CCSC(N)=N3)c2)cn1 [Compound 86] | 6.72
CC(C)COc1cnc(C(=O)Nc2cccc([C@]3(C)CCSC(N)=N3)c2)cn1 [Compound 87] | 7.05
C[C@@]1(c2cccc(NC(=O)c3cnc(OCC(F)F)cn3)c2)CCSC(N)=N1 [Compound 92] | 7.10
COCCOc1ccc(C(=O)Nc2ccc(F)c([C@]3(C)CCSC(N)=N3)c2)nc1 [Compound 93] | 7.10
C[C@@]1(c2cccc(NC(=O)c3cnc(OCC4CCO4)cn3)c2)CCSC(N)=N1 (stereo partly shown) [Compound 94] | 6.77
C[C@@]1(c2cccc(NC(=O)c3cnc(OCc4ccccc4)cn3)c2)CCSC(N)=N1 [Compound 101] | 7.10
C#CCCOc1cnc(C(=O)Nc2cccc([C@]3(C)CCSC(N)=N3)c2)cn1 [Compound 105] | 6.89
CC#CCCOc1cnc(C(=O)Nc2cccc([C@]3(C)CCSC(N)=N3)c2)cn1 [Compound 106] | 6.92
C=C(C)COc1cnc(C(=O)Nc2cccc([C@]3(C)CCSC(N)=N3)c2)cn1 [Compound 109] | 7.00
C[C@@]1(c2cccc(NC(=O)c3ccc(OCc4ccc(F)cc4)cn3)c2)CCSC(N)=N1 [Compound 111] | 6.74
C[C@@]1(c2cc(NC(=O)c3ccc(OCCO)cn3)ccc2F)CCSC(N)=N1 [Compound 114] | 6.80
COc1nc(Nc2ccc(F)c([C@]3(C)CCSC(N)=N3)c2)nc(OC)n1 [Compound 126] | 5.67

same assay, conditions: Recombinant human BACE-1 7.4 nM, substrate peptide 18 nM, pH 5.0, 30° C., 3 hours; time-resolved fluorescence ratio 665/620; read-out: IC50 values (50% inhibitory concentration against the enzymatic activity)

SMILES | pIC50
Cn1nc(C(F)(F)F)cc1C(=O)Nc1cccc([C@]2(C)CCSC(N)=N2)c1 [Compound 4] | ≥ 6.00
Cc1cc(C(=O)Nc2cccc([C@]3(C)CCSC(N)=N3)c2)[nH]n1 [Compound 5] | ≥ 6.00
COc1cc(C(=O)Nc2cccc([C@]3(C)CCSC(N)=N3)c2)n(C)n1 [Compound 18] | ≥ 6.00
Cc1cc(C(=O)Nc2ccc(F)c([C@]3(C)CCSC(N)=N3)c2)on1 [Compound 19] | ≥ 6.00
Cc1cc(C(=O)Nc2ccc(F)c([C@]3(C)CCSC(N)=N3)c2)no1 [Compound 20] | ≥ 6.00
CSc1ccc(NC(=O)c2cnc(C)cn2)cc1[C@]1(C)CCSC(N)=N1 [Compound 21] | ≥ 6.00
COc1cc(C(=O)Nc2ccc(F)c([C@]3(C)CCSC(N)=N3)c2)on1 [Compound 22] | ≥ 6.00
COc1cnc(C(=O)Nc2cccc([C@]3(C)CCSC(N)=N3)c2)cn1 [Compound 29] | ≥ 6.00
COc1ccc(NC(=O)c2cnc(C)cn2)cc1[C@]1(C)CCSC(N)=N1 [Compound 32] | ≥ 6.00
CSc1ccc(C(=O)Nc2cccc([C@]3(C)CCSC(N)=N3)c2)nc1 [Compound 33] | ≥ 6.00
CC#CCOc1ccc(C(=O)Nc2cccc([C@]3(C)CCSC(N)=N3)c2)nc1 [Compound 35] | ≥ 6.00
CCOc1nccnc1C(=O)Nc1ccc(F)c([C@]2(C)CCSC(N)=N2)c1 [Compound 43] | ≥ 6.00
COCCOc1nccnc1C(=O)Nc1ccc(F)c([C@]2(C)CCSC(N)=N2)c1 [Compound 45] | ≥ 6.00
COCCOc1cnc(C(=O)Nc2ccc(F)c([C@]3(C)CCSC(N)=N3)c2)c(N)n1 [Compound 46] | ≥ 6.00
C[C@@]1(c2cccc(NC(=O)c3cnc(Cl)cn3)c2)CCSC(N)=N1 [Compound 58] | ≥ 6.00
C[C@@]1(c2cccc(NC(=O)c3nccnc3Cl)c2)CCSC(N)=N1 [Compound 59] | ≥ 6.00
CCc1cnc(C(=O)Nc2cccc([C@]3(C)CCSC(N)=N3)c2)cn1 [Compound 63] | ≥ 6.00
C[C@@]1(c2cccc(NC(=O)C#Cc3ccccc3)c2)CCSC(N)=N1 [Compound 64] | ≥ 6.00
C[C@@]1(c2cccc(NC(=O)c3cnc(C(N)=O)cn3)c2)CCSC(N)=N1 [Compound 68] | ≥ 6.00

SMILES | pIC50
CSc1cnc(C(=O)Nc2cccc([C@]3(C)CCSC(N)=N3)c2)cn1 [Compound 69] | ≥ 6.00
COCCOc1cnc(C(=O)Nc2ccc(F)c([C@]3(C)CCSC(N)=N3)c2)cn1 [Compound 75] | ≥ 6.00
CSc1cnc(C(=O)Nc2ccc(F)c([C@]3(C)CCSC(N)=N3)c2)cn1 [Compound 77] | ≥ 6.00
C[C@@]1(c2cc(NC(=O)c3cnc(Cl)cn3)ccc2F)CCSC(N)=N1 [Compound 78] | ≥ 6.00
C[C@@]1(c2cc(NC(=O)c3cnc(N=[N+]=[N-])cn3)ccc2F)CCSC(N)=N1 [Compound 79] | ≥ 6.00
CCOCCOc1cnc(C(=O)Nc2cccc([C@]3(C)CCSC(N)=N3)c2)cn1 [Compound 81] | ≥ 6.00
C[C@@]1(c2cccc(NC(=O)c3cnc(OCC(F)(F)F)cn3)c2)CCSC(N)=N1 [Compound 82] | ≥ 6.00
C/C=C/COc1cnc(C(=O)Nc2cccc([C@]3(C)CCSC(N)=N3)c2)cn1 [Compound 83] | ≥ 6.00
C[C@@]1(c2cc(NC(=O)c3nccnc3Cl)ccc2F)CCSC(N)=N1 [Compound 84] | ≥ 6.00
COc1nccnc1C(=O)Nc1ccc(F)c([C@]2(C)CCSC(N)=N2)c1 [Compound 85] | ≥ 6.00
C[C@@]1(c2cccc(NC(=O)c3cnc(OCCC(F)(F)F)cn3)c2)CCSC(N)=N1 [Compound 89] | ≥ 6.00
COCCOCCOc1cnc(C(=O)Nc2cccc([C@]3(C)CCSC(N)=N3)c2)cn1 [Compound 90] | ≥ 6.00
CC#CCOc1cnc(C(=O)Nc2cccc([C@]3(C)CCSC(N)=N3)c2)cn1 [Compound 91] | ≥ 6.00
COCCOc1ccc(C(=O)Nc2cccc([C@]3(C)CCSC(N)=N3)c2)nc1 [Compound 95] | ≥ 6.00
COCCCOc1ccc(C(=O)Nc2cccc([C@]3(C)CCSC(N)=N3)c2)nc1 [Compound 96] | ≥ 6.00
C[C@@]1(c2cccc(NC(=O)c3ccc(OCCF)cn3)c2)CCSC(N)=N1 [Compound 97] | ≥ 6.00
CC(C)=CCOc1ccc(C(=O)Nc2cccc([C@]3(C)CCSC(N)=N3)c2)nc1 [Compound 98] | ≥ 6.00
CC#CCOc1cnc(C(=O)Nc2ccc(F)c([C@]3(C)CCSC(N)=N3)c2)cn1 [Compound 100] | ≥ 6.00
C[C@@]1(c2cccc(NC(=O)c3ccc(OCc4ccccc4)cn3)c2)CCSC(N)=N1 [Compound 102] | ≥ 6.00

SMILES | pIC50
C#CCOc1cnc(C(=O)Nc2cccc([C@]3(C)CCSC(N)=N3)c2)cn1 [Compound 103] | ≥ 6.00
CC#CCOc1cnc(C(=O)Nc2cccc(C3CCSC(N)=N3)c2)cn1 (stereo not shown) [Compound 107] | ≥ 6.00
CC/C=C\COc1cnc(C(=O)Nc2cccc([C@]3(C)CCSC(N)=N3)c2)cn1 [Compound 108] | ≥ 6.00
C[C@@]1(c2cccc(NC(=O)c3ccc(O)cn3)c2)CCSC(N)=N1 [Compound 110] | ≥ 6.00
C[C@@]1(c2cc(NC(=O)c3ccc(OCc4ccco4)cn3)ccc2F)CCSC(N)=N1 [Compound 112] | ≥ 6.00
CC(C)=NOc1cnc(C(=O)Nc2cccc([C@]3(C)CCSC(N)=N3)c2)cn1 [Compound 113] | ≥ 6.00
CCCCCc1cnc(C(=O)Nc2ccc(F)c([C@]3(C)CCSC(N)=N3)c2)cn1 [Compound 115] | ≥ 6.00
COCC#Cc1cnc(C(=O)Nc2ccc(F)c([C@]3(C)CCSC(N)=N3)c2)cn1 [Compound 116] | ≥ 6.00
COC/C=C\c1cnc(C(=O)Nc2ccc(F)c([C@]3(C)CCSC(N)=N3)c2)cn1 [Compound 117] | ≥ 6.00
COCCCc1cnc(C(=O)Nc2ccc(F)c([C@]3(C)CCSC(N)=N3)c2)cn1 [Compound 118] | ≥ 6.00
C[C@@]1(c2cc(NC(=O)c3ccc(O)cn3)ccc2F)CCSC(N)=N1 [Compound 119] | ≥ 6.00
CC#CCNc1cnc(C(=O)Nc2ccc(F)c([C@]3(C)CCSC(N)=N3)c2)cn1 [Compound 120] | ≥ 6.00
C[C@@]1(c2cc(NC(=O)c3cnc(OCC4CC4)cn3)ccc2F)CCSC(N)=N1 [Compound 121] | ≥ 6.00
CC#CCNc1cnc(C(=O)Nc2cccc([C@]3(C)CCSC(N)=N3)c2)cn1 [Compound 123] | ≥ 6.00
CCC/C=C/c1cnc(C(=O)Nc2ccc(F)c([C@]3(C)CCSC(N)=N3)c2)cn1 [Compound 124] | ≥ 6.00
CC(C)=NOc1cnc(C(=O)Nc2ccc(F)c([C@]3(C)CCSC(N)=N3)c2)cn1 [Compound 125] | ≥ 6.00
C[C@@]1(c2cc(NC(=O)c3cnc(OCC(F)F)cn3)ccc2F)CCSC(N)=N1 [Compound 131] | ≥ 6.00
C[C@@]1(c2cc(NC(=O)c3cnc(OCCF)cn3)ccc2F)CCSC(N)=N1 [Compound 132] | ≥ 6.00
